These results are taken from patent US20240368169A1 (priority 2021, published 2024).

For assay [1], the target named is recombinant poly(ADP-ribose) polymerase 1 (PARP1) (Homo sapiens, UniProt P09874). Put plainly: biochemical. The conditions noted are these: inhibition of PARP1 enzyme activity, chemiluminescence.
The target in assay [2] is recombinant poly(ADP-ribose) polymerase 2 (PARP2) (Homo sapiens, UniProt Q9UGN5). Put plainly: biochemical. The conditions noted are these: inhibition of PARP2 enzyme activity, chemiluminescence.
The subject of assay [3] is MDA-MB-436 cells. Put plainly: Growth inhibition assay against BRCA mutant human breast cancer MDA-MB-436 cell line (CCK-8, 7 days). It is filed as cell-based.

Sequence of recombinant poly(ADP-ribose) polymerase 2 (PARP2) (Q9UGN5 whole entry): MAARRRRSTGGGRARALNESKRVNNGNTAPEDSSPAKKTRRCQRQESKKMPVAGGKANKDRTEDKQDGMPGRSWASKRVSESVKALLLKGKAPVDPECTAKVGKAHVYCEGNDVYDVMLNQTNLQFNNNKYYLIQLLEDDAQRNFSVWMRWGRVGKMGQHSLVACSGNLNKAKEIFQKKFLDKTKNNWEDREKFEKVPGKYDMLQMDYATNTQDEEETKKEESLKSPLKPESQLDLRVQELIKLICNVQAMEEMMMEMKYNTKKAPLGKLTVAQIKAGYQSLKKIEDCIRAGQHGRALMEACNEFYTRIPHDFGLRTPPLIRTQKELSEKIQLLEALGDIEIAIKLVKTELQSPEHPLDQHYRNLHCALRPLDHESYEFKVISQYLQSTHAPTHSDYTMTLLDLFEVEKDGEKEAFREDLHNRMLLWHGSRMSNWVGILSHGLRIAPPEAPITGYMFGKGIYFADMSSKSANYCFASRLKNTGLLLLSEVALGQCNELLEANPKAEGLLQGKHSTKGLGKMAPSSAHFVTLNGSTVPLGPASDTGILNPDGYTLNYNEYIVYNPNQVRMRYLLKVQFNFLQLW
Sequence of recombinant poly(ADP-ribose) polymerase 1 (PARP1) (P09874 whole entry): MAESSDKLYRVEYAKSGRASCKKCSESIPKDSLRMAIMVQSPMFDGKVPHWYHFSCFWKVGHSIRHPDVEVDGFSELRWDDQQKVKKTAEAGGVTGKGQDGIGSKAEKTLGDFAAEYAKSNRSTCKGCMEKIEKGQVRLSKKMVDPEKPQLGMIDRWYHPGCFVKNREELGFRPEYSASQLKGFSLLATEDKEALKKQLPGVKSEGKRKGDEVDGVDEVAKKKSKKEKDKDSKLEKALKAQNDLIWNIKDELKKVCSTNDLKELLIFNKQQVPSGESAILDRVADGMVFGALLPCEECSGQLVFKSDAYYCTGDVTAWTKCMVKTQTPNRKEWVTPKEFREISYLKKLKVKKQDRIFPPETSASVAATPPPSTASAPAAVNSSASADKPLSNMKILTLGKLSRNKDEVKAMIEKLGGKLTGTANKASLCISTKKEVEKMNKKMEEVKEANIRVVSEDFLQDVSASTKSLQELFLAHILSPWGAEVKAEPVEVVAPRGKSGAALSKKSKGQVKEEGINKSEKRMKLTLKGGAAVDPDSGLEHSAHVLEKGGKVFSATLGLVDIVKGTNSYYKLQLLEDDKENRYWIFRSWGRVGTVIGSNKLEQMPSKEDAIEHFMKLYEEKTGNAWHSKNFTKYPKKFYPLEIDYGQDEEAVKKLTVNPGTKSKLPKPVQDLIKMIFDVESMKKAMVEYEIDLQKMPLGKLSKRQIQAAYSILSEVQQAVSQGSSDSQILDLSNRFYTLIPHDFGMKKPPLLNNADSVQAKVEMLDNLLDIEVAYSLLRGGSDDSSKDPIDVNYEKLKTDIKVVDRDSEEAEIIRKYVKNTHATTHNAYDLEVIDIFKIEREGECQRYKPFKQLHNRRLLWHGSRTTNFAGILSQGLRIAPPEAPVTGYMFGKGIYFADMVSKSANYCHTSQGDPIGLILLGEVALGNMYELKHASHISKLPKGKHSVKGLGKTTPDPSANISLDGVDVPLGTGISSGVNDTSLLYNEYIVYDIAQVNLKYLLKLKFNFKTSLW

One may read the IC50 as the concentration that gives 50% inhibition. As for `CNC(=O)c1ccc(N2CCN(Cc3cc(F)c4c(c3)[nH]c(=O)c3sccc34)CC2)c(C)n1` [Example 114, 7-((4-(2-methyl-6-(methylcarbamoyl)pyridin-3-yl)piperazin-1-yl)methyl)-9-fluorothieno[2,3-c]quinolin-4(5H)-one], the figures for the IC50 in assay [1], in assay [2] and in assay [3] were 0.67 nM, 16.9 nM and 3.72 nM, respectively.

Take `CNC(=O)c1ccc(N2CCN(Cc3cc(F)c4c(c3)[nH]c(=O)c3cc(C)nn34)CC2)c(F)n1` [Example 73, 7-((4-(2-fluoro-6-(methylcarbamoyl)pyridin-3-yl)piperazin-1-yl)methyl)-9-fluoro-2-methylpyrazolo[1,5-a]quinoxalin-4(5H)-one]: the results for the IC50 in assay [1], in assay [2] and in assay [3] were 1.96 nM, 78.1 nM and 1.77 nM, respectively.

Consider `Cc1nc(C(N)=O)ccc1N1CCN(Cc2cc(F)c3c(c2)[nH]c(=O)c2ccnn23)CC1` [Example 89, 7-((4-(2-methyl-6-(carbamoyl)pyridin-3-yl)piperazin-1-yl)methyl)-9-fluoropyrazolo[1,5-a]quinoxalin-4(5H)-one], for which the figures for the IC50 in assay [1], in assay [2] and in assay [3] were 1.72 nM, 861 nM and 2.22 nM, respectively.

Regarding `CNC(=O)c1ccc(N2CCN(Cc3ccc4c(c3)[nH]c(=O)c3cncn34)CC2)c(F)n1` [Example 38, 7-((4-(2-fluoro-6-(methylcarbamoyl)pyridin-3-yl)piperazin-1-yl)methyl)imidazo[1,5-a]quinoxalin-4(5H)-one], the IC50 in assay [1] stood at 0.3 nM; in assay [2], 59.9 nM; in assay [3] it was 4.06 nM.

Take `CNC(=O)c1ccc(N2CCN(Cc3cc(F)c4c(c3)[nH]c(=O)c3cc(Cl)nn34)CC2)c(C)n1` [Example 87, 7-((4-(2-methyl-6-(methylcarbamoyl)pyridin-3-yl)piperazin-1-yl)methyl)-2-chloro-9-fluoropyrazolo[1,5-a]quinoxalin-4(5H)-one]: the values for the IC50 in assay [1], in assay [2] and in assay [3] were 1.22 nM, 84.1 nM and 0.94 nM, respectively.

As to `Cc1nc(C(=O)NC2CC2)ccc1N1CCN(Cc2ccc3c(c2)[nH]c(=O)c2cccn23)CC1` [Example 59, 7-((4-(2-methyl-6-(cyclopropylcarbamoyl)pyridin-3-yl)piperazin-1-yl)methyl)pyrrolo[1,2-a]quinoxalin-4(5H)-one], the results for the IC50 in assay [1], in assay [2] and in assay [3] were 1.39 nM, 21.9 nM and 0.99 nM, respectively.

Regarding `CNC(=O)c1ccc(N2CCN(Cc3ccc4c5c(c(=O)[nH]c4c3)COC5)CC2)c(F)n1` [Example 2, 7-((4-(2-fluoro-6-(methylcarbamoyl)pyridin-3-yl)piperazin-1-yl)methyl)-3,5-dihydrofuro[3,4-c]quinolin-4(1H)-one], the IC50 in assay [1] was 1.91 nM; in assay [2], 128 nM; in assay [3], 2.65 nM.

With `CNC(=O)c1ccc(N2CCN(Cc3ccc4c(c3)[nH]c(=O)c3cc(Cl)nn34)CC2)c(C)n1` [Example 100, 7-((4-(2-methyl-6-(methylcarbamoyl)pyridin-3-yl)piperazin-1-yl)methyl)-2-chloropyrazolo[1,5-a]quinoxalin-4(5H)-one], the figures for the IC50 in assay [1], in assay [2] and in assay [3] were 0.95 nM, 65.6 nM and 0.68 nM, respectively.

Turning to `CNC(=O)c1ccc(N2CCN(Cc3ccc4c(c3)[nH]c(=O)c3c(C)cnn34)CC2)c(F)n1` [Example 71, 7-((4-(2-fluoro-6-(methylcarbamoyl)pyridin-3-yl)piperazin-1-yl)methyl)-3-methylpyrazolo[1,5-a]quinoxalin-4(5H)-one], the IC50 was determined as 1.35 nM in assay [1], 66.4 nM in assay [2] and 0.77 nM in assay [3].

For the molecule `CNC(=O)c1ccc(N2CCN(Cc3cc(F)c4c(c3)[nH]c(=O)c3c(C)cnn34)CC2)c(C)n1` [Example 78, 7-((4-(2-methyl-6-(methylcarbamoyl)pyridin-3-yl)piperazin-1-yl)methyl)-9-fluoro-3-methylpyrazolo[1,5-a]quinoxalin-4(5H)-one], the IC50 in assay [1] amounted to 1.38 nM; in assay [2] it was 153 nM; in assay [3] it was 1 nM.

Turning to `CNC(=O)c1ccc(N2CCN(Cc3ccc4c(c3)[nH]c(=O)c3ccc(C)n34)CC2)c(C)n1` [Example 54, 7-((4-(2-methyl-6-(methylcarbamoyl)pyridin-3-yl)piperazin-1-yl)methyl)-1-methylpyrrolo[1,2-a]quinoxalin-4(5H)-one], the IC50 was 1.32 nM in assay [1], 12.7 nM in assay [2] and 1.85 nM in assay [3].

Regarding `CNC(=O)c1ccc(N2CCN(Cc3ccc4c(c3)[nH]c(=O)c3c(C)c(C)nn34)CC2)c(C)n1` [Example 101, 7-((4-(2-methyl-6-(methylcarbamoyl)pyridin-3-yl)piperazin-1-yl)methyl)-2,3-dimethylpyrazolo[1,5-a]quinoxalin-4(5H)-one], the IC50 in assay [1] was 4.43 nM; in assay [2], 35.6 nM; in assay [3], 2.48 nM.

As to `CNC(=O)c1ccc(N2CCN(Cc3ccc4c5c(c(=O)[nH]c4c3)COC5)CC2)c(Cl)n1` [Example 3, 7-((4-(2-chloro-6-(methylcarbamoyl)pyridin-3-yl)piperazin-1-yl)methyl)-3,5-dihydrofuro[3,4-c]quinolin-4(1H)-one], the IC50 in assay [1] was 1.33 nM; in assay [2], 467 nM; in assay [3], 5.01 nM.

`CNC(=O)c1ccc(N2CCN(Cc3ccc4c(c3)[nH]c(=O)c3ccnn34)CC2)c(C)n1` [Example 28, 7-((4-(2-methyl-6-(methylcarbamoyl)pyridin-3-yl)piperazin-1-yl)methyl)pyrazolo[1,5-a]quinoxalin-4(5H)-one]: the results for the IC50 in assay [1], in assay [2] and in assay [3] were 0.77 nM, over 3000 nM and 0.98 nM, respectively.

Regarding `CNC(=O)c1ccc(N2CCN(Cc3ccc4c(c3)[nH]c(=O)c3ccnn34)CC2)c(Cl)n1` [Example 37, 7-((4-(2-chloro-6-(methylcarbamoyl)pyridin-3-yl)piperazin-1-yl)methyl)pyrazolo[1,5-a]quinoxalin-4(5H)-one], the IC50 in assay [1] was 0.47 nM; in assay [2] it was 46.5 nM; in assay [3] it was 1.07 nM.

In the case of `CNC(=O)c1ccc(N2CCN(Cc3cc(F)c4c(c3)[nH]c(=O)c3cccn34)CC2)c(C)n1` [Example 40, 7-((4-(2-methyl-6-(methylcarbamoyl)pyridin-3-yl)piperazin-1-yl)methyl)-9-fluoropyrrolo[1,2-a]quinoxalin-4(5H)-one], the IC50 in assay [1] is 1.54 nM; in assay [2] it was 38.7 nM; in assay [3] it was 1.15 nM.

As to `CNC(=O)c1ccc(N2CCN(Cc3cc(F)c4c(c3)[nH]c(=O)c3cc(C)nn34)CC2)c(Cl)n1` [Example 74, 7-((4-(2-chloro-6-(methylcarbamoyl)pyridin-3-yl)piperazin-1-yl)methyl)-9-fluoro-2-methylpyrazolo[1,5-a]quinoxalin-4(5H)-one], the IC50 in assay [1] was 1.52 nM; in assay [2], 186 nM; in assay [3], 1.58 nM.

For `CNC(=O)c1ccc(N2CCN(Cc3cc(F)c4c5c(c(=O)[nH]c4c3)CCC5)CC2)c(F)n1` [Example 80, 7-((4-(2-fluoro-6-(methylcarbamoyl)pyridin-3-yl)piperazin-1-yl)methyl)-9-fluoro-1,2,3,5-tetrahydro-4H-cyclopenta[c]quinolin-4-one], the IC50 was found to be 2.26 nM in assay [1], 32 nM in assay [2] and 2.37 nM in assay [3].

With `CNC(=O)c1ccc(N2CCN(Cc3cc(F)c4c(c3)[nH]c(=O)c3ccnn34)CC2)c(F)n1` [Example 44, 7-((4-(2-fluoro-6-(methylcarbamoyl)pyridin-3-yl)piperazin-1-yl)methyl)-9-fluoropyrazolo[1,5-a]quinoxalin-4(5H)-one], the IC50 was 1.76 nM in assay [1], 318 nM in assay [2] and 2.17 nM in assay [3].

For the molecule `CCNC(=O)c1ccc(N2CCN(Cc3cc(F)c4c(c3)[nH]c(=O)c3ccnn34)CC2)c(C)n1` [Example 91, 7-((4-(2-methyl-6-(ethylcarbamoyl)pyridin-3-yl)piperazin-1-yl)methyl)-9-fluoropyrazolo[1,5-a]quinoxalin-4(5H)-one], the figures for the IC50 in assay [1], in assay [2] and in assay [3] were 1.39 nM, 627 nM and 2.81 nM, respectively.

Consider `CNC(=O)c1ccc(N2CCN(Cc3ccc4c([nH]c(=O)c5ccnn54)c3F)CC2)c(C)n1` [Example 94, 7-((4-(2-methyl-6-(methylcarbamoyl)pyridin-3-yl)piperazin-1-yl)methyl)-6-fluoropyrazolo[1,5-a]quinoxalin-4(5H)-one], for which the IC50 in assay [1] was 2.69 nM; in assay [2] it was over 10000 nM; in assay [3] it was 5.05 nM.

For the molecule `CNC(=O)c1ccc(N2CCN(Cc3cc(C)c4c(c3)[nH]c(=O)c3ccnn34)CC2)c(C)n1` [Example 102, 7-((4-(2-methyl-6-(methylcarbamoyl)pyridin-3-yl)piperazin-1-yl)methyl)-9-methylpyrazolo[1,5-a]quinoxalin-4(5H)-one], the figures for the IC50 in assay [1], in assay [2] and in assay [3] were 6.91 nM, 101 nM and 2.24 nM, respectively.

Consider `CNC(=O)c1ccc(N2CCN(Cc3ccc4c(c3)[nH]c(=O)n3cncc43)CC2)c(C)n1` [Example 30, 8-((4-(2-methyl-6-(methylcarbamoyl)pyridin-3-yl)piperazin-1-yl)methyl)imidazo[1,5-c]quinazolin-5(6H)-one], for which the IC50 in assay [1] is 1.54 nM; in assay [2], 2590 nM.

As for `CNC(=O)c1ccc(N2CCN(Cc3cc(F)c4c(c3)[nH]c(=O)c3occc34)CC2)c(F)n1` [Example 108, 7-((4-(2-fluoro-6-(methylcarbamoyl)pyridin-3-yl)piperazin-1-yl)methyl)-9-fluoro-furo[2,3-c]quinolin-4(5H)-one], the figures for the IC50 in assay [1] and in assay [2] were 0.66 nM and 353 nM, respectively.

Regarding `CNC(=O)c1ccc(N2CCN(Cc3ccc4c([nH]c(=O)c5ccnn54)c3C)CC2)c(F)n1` [Example 133, 7-((4-(2-fluoro-6-(methylcarbamoyl)pyridin-3-yl)piperazin-1-yl)methyl)-6-methylpyrazolo[1,5-a]quinoxalin-4(5H)-one], the IC50 is 1.5 nM in assay [1] and 222 nM in assay [2].
